*1 amine or outer side, *2 acyl side, *3 side chain or, on linkers, in order; H or OH if unused. Where no end group is shown, it is not given here. [ ]: non-standard residue; d: D form. The star is where a group is joined. FITC = O=C1OC2(c3ccc(O)cc3Oc3cc(O)ccc32)c2ccc(NC(=S)*)cc21; Cys(Me) = CSC[C@H](N[*:1])C(=O)[*:2]; AEA = NCCOCC(=O)O
Assays:
[1] = tested on: MMP2-predigested collagen IV; test: In vitro binding to MMP2-predigested collagen IV coated glass slides; set-up: species or system human; details: for FITC signal on MMP2-predigested collagen IV coated glass slide: 0.1 mg/ml, room temperature
Procedure: (§1) T-peptide-FITC (Alexa 488) and control peptide-FITC conjugates, as well as the unlabelled T-peptide-LPETG peptide, were commercially synthesized (GL Biochem. Shanghai, China) using solid phase peptide synthesis, as described elsewhere herein. The concentration of the synthesized peptides were all at 1 mg/ml.
Binding to MMP2 digested collagen IV Collagen IV was applied to glass slides coated with polylysine. 1. Polylysine (MW of 30,000-70,000) at 0.1 mg/ml in 0.15 M borate buffer (pH 8.3) was prepared and filtered with […] pore size membrane syringe filter (Millex® Syringe Filter, Millipore). 2. Collagen IV (collagen type IV from human fibroblast culture, Sigma. Aldrich) was diluted to 1:10 with Hank's Balanced Salt Solution (HBSS) to 0.04 mg/ml. 3. For MMP2 digestion, Active recombinant human MMP2 enzyme (expressed in CHO cells) was purchased from Calbiochem. MMP2 stock solution was diluted with PBS to create 0.01 μg/μl MMP2 concentration according to manufacturer's recommendations. 4. For T-peptide-HTC testing using added MMP2, 20 μl of polylysine was spotted on several glass slides and left overnight at room temperature to dry. This forms a coating base for collagen to adhere to subsequently. 5. To predigest some collagen IV with MMP2, 3 μl of (0.1 mg/ml ) MMP2 was mixed with 35.8 μl of diluted collagen IV solution with 1.2 μl of 100 mM CaCl2 (3 mM Calcium final concentration) in an Eppendorf tube and incubated at 37° C. shaking at 600 rpm in an Eppendorf Thermomixer for 2 hours. 6. To create intact collagen IV coated slides, […] of diluted collagen IV solution was dropped onto the dried polylysine spot on the slide. 7. To create MMP2 predigested collagen IV coated slides, […] predigested collagen IV was dropped onto the dried polylysine spot on the glass slide. 8. The slides with collagen IV were dried uncovered overnight before testing. 9. Next day, […] of T-peptide-FITC (0.1 mg/ml) was added to the MMP2 predigested collagen spot, […] of T-peptide-FITC (0.1 mg/ml) was added to the intact collagen slide, and […] Control peptide-FITC (0.1mg/ml) was added to the MMP2 predigested collagen slide and the slides were incubated in a covered humidified box with wet paper towels at room temperature for 60 minutes. 10. For the ‘blocked epitope’ slide, […] of unlabelled T-peptide-LPETG (0.1 mg/ml) was added to the MMP2 predigested collagen slide and incubated similarly for 60 minutes. This step binds the epitopes present on the collagen IV and prevents further binding with the FITC labelled T-peptide. Next, […] of T-peptide-FITC (0.1 mg/ml) was added to the same area and incubated for 60 minutes. 11. All the treated slides were examined under fluorescence microscopy (IX81 Olympus microscope).

[2] = tested on: unstable plaque in the mouse carotid artery; test: Ex vivo binding to frozen sections of tandem stenosis mouse carotid unstable plaques; details: 0.1 mg/ml conjugate, 60 minutes, FITC channel fluorescence microscopy
Procedure: (§2) Conjugates of T-peptide (TLTYTWS)-FITC (Alexa 488) and control peptide (Con-peptide)-FITC were commercially synthesized (GL Biochem, Shanghai China) using solid phase peptide synthesis, as described above. The concentration of the synthesized peptide-FITC conjugates was 1 mg/ml.
(§3) At 12 weeks of age and 6 weeks after commencement of high fat diet, ApoE−/− mice (C57BL/6J background) were anaesthetized by intraperitoneal injection of a mixture of ketamine (100 mg/kg) and xylazine (10 mg/kg). An incision was made in the neck and the right common carotid artery exposed by dissecting away circumferential connective tissue. A tandem stenosis with 150 μm outer diameter was introduced with the distal stenosis placed 1 mm from the carotid artery bifurcation and the proximal stenosis 3 mm from the distal stenosis. A 6-0 blue braided polyester fibre suture was tied around the carotid artery and a 150 μm needle to achieve the stenosis diameter of 150 μm and the needle was subsequently removed after the suture was secured. The incision wound was sutured close and the mice resumed their high fat diet. […]
(§4) Frozen […] tissue sections of tandem stenosis mouse carotid unstable plaques and aortic arch stable plaques on glass slides were thawed for 30 minutes at room temperature. […] The slides were then examined by fluorescence microscopy (IX81 Olympus microscope) in the FITC 488 nm channel.

[3] = tested on: unstable plaque (right common carotid artery segment 1); test: In vivo binding to unstable plaque after intravenous administration to tandem stenosis mice; set-up: species or system mouse; details: tandem stenosis ApoE-/- mice, bolus plus infusion into jugular vein, tissue taken 30 minutes after administration
Procedure: (§5) The T-peptide-FITC (Alexa 488) and its control scrambled peptide Con-peptide-FITC were commercially synthesized (GL Biochem. Shanghai China) using solid phase peptide synthesis, as described elsewhere herein. The concentration of the synthesized peptides were all at 1 mg/ml,
(§6) Each mouse with an average weight of 25 g, would receive […] of T-peptide-FITC or […] of Con-peptide-FITC diluted 1:2 to give concentration of 0.5 mg/ml, which works out to be […] body weight, […] of the diluted peptide will be given as a bolus into the left external jugular vein and the remaining […] by infusion at a rate of […] using an infusion pump connected to a plastic catheter inserted into the left external jugular vein. The method of bolus dose followed by infusion is to optimize the blood level and duration of the circulating peptide to enhance plaque entry and vascular tissue retention of the peptide, since the small molecular weight of the peptide is at risk of rapid clearance through the kidneys. […]
(§7) The frozen section slides were thawed for 30 minutes at room temperature before examination under the fluorescence microscope (IX81 Olympus microscope) in the FITC 488 nm channel.

[4] = tested on: areas of localised fibrosis in the myocardium; test: Ex vivo binding to infarcted mouse myocardium (LAD occlusion); details: ex vivo sections of infarcted mouse hearts 6 weeks after LAD ligation
Procedure: To assess whether labelled T-peptide can bind to fibrotic myocardium, a mouse model of myocardial infarction (via left anterior descending coronary artery (LAD) occlusion) was used. This model reflects a very defined area of fibrosis in the infarct zone.
Mice were anaesthetised, the LAD ligated with a suture, and the thorax closed. After 60 mins the suture was removed. After 6 weeks and the development of fibrosis, parts of the infarcted hearts were sectioned and incubated with the T-peptide-FITC and control (s)-peptide-FITC constructs.

[5] = tested on: stable aortic arch plaques; test: Ex vivo binding to frozen sections of stable aortic arch plaques; set-up: species or system mouse; details: 0.1 mg/ml conjugate, 60 minutes, FITC channel fluorescence microscopy
Procedure: as §2, §3, §4

[6] = tested on: stable plaque (aortic arch segment 5); test: In vivo binding to stable aortic arch plaque after intravenous administration to tandem stenosis mice; set-up: species or system mouse; details: tandem stenosis ApoE-/- mice, bolus plus infusion into jugular vein, tissue taken 30 minutes after administration
Procedure: as §5, §6, §7

[7] = tested on: intact collagen IV; test: In vitro binding to undigested collagen IV coated glass slides; set-up: species or system human; details: 0.1 mg/ml, 60 minutes, room temperature
Procedure: as §1
Binding to MMP2 digested collagen IV Collagen IV was applied to glass slides coated with polylysine. 1. Polylysine (MW of 30,000-70,000) at 0.1 mg/ml in 0.15 M borate buffer (pH 8.3) was prepared and filtered with […] pore size membrane syringe filter (Millex® Syringe Filter, Millipore). 2. Collagen IV (collagen type IV from human fibroblast culture, Sigma. Aldrich) was diluted to 1:10 with Hank's Balanced Salt Solution (HBSS) to 0.04 mg/ml. 3. For MMP2 digestion, Active recombinant human MMP2 enzyme (expressed in CHO cells) was purchased from Calbiochem. MMP2 stock solution was diluted with PBS to create 0.01 μg/μl MMP2 concentration according to manufacturer's recommendations. 4. For T-peptide-HTC testing using added MMP2, 20 μl of polylysine was spotted on several glass slides and left overnight at room temperature to dry. This forms a coating base for collagen to adhere to subsequently. 5. […] All the treated slides were examined under fluorescence microscopy (IX81 Olympus microscope).

| Substance | binding to MMP2-predigested collagen IV fibres with additional amino acids at the N terminus [1] | binding to unstable plaque (fluorescent signal) [2] | binding to the unstable plaque following intravenous administration [3] | FITC signal on MMP2-predigested collagen IV coated glass slide ([1]; 60 minutes) | binding to fibrotic myocardium [4] | binding to stable plaque (fluorescent signal) [5] | binding to the stable aortic arch plaque after intravenous administration [6] | FITC signal on MMP2-predigested collagen IV slide preincubated with unlabelled T-peptide ([1]; blocked epitope slide: unlabelled T-peptide-LPETG 0.1 mg/ml 60 minutes, then T-peptide-FITC 0.1 mg/ml 60 minutes) | FITC signal on undigested collagen IV coated glass slide [7] | blocking of T-peptide-FITC binding to MMP2-predigested collagen IV ([1]; preincubation 0.1 mg/ml, 60 minutes) |
| --- | --- | --- | --- | --- | --- | --- | --- | --- | --- | --- |
| GGGWWSSASPAATLTYTWSGLPAPASPA-eeeeeeee-(Aop)-PLGC(Me)AG-rrrrrrrrr-GAGAPAC (GGGWWSSASPAATLTYTWSGLPAPASPA[dE][dE][dE][dE][dE][dE][dE][dE][AEA]PLG[Cys(Me)]AG[dR][dR][dR][dR][dR][dR][dR][dR][dR]GAGAPAC) [GGG-T-peptide-ACPP-cysteine] | did not reduce or eliminate binding |  |  |  |  |  |  |  |  |  |
| H-GLGYGWSGK(FITC)-OH (SMILES CC(C)C[C@H](NC(=O)CN)C(=O)NCC(=O)N[C@@H](Cc1ccc(O)cc1)C(=O)NCC(=O)N[C@@H](Cc1c[nH]c2ccccc12)C(=O)N[C@@H](CO)C(=O)NCC(=O)N[C@@H](CCCCNC(=S)Nc1ccc2c(c1)C(=O)OC21c2ccc(O)cc2Oc2cc(O)ccc21)C(=O)O) [control peptide-FITC conjugate, reference compound] |  | no significant binding | no evidence of binding | no FITC signal | no evidence of binding |  |  |  |  |  |
| H-TLTYTWSGK(FITC)-OH (SMILES CC(C)C[C@H](NC(=O)[C@@H](N)[C@@H](C)O)C(=O)N[C@H](C(=O)N[C@@H](Cc1ccc(O)cc1)C(=O)N[C@H](C(=O)N[C@@H](Cc1c[nH]c2ccccc12)C(=O)N[C@@H](CO)C(=O)NCC(=O)N[C@@H](CCCCNC(=S)Nc1ccc2c(c1)C(=O)OC21c2ccc(O)cc2Oc2cc(O)ccc21)C(=O)O)[C@@H](C)O)[C@@H](C)O) [T-peptide-FITC conjugate] |  | strong fluorescent signal within the lumen | strong binding | strong FITC signal | binds specifically to areas of localised fibrosis in the myocardium | no fluorescent signal within the vascular lumen | no binding | no significant FITC signal | no FITC signal |  |
| HTLTYTWSGGGLPETGGHHHHHH-OH [T-peptide-LPETG] |  |  |  |  |  |  |  |  |  | blocked binding |
